One assay addresses JAK1 (Homo sapiens, UniProt P23458). Put plainly: Enzymatic JAK1 kinase activity. The class given is biochemical. The note with it: dose-response curves; read-out: IC50 ± SD, JAK1. On the procedure:
(§1) Enzymatic Syk kinase activity assays were performed as previously described. Enzymatic activity of JAK1, JAK2, JAK3, and Tyk kinases was evaluated as previously described.

In assay [1] the test system is COL7A1 mRNA in RDEB_L1 and RDEB_L5 cells. Put plainly: Real-time qPCR of COL7A1 mRNA. The note with it: 24 h, 20 ng/mL TGFβ2. The class given is cell-based, human. As to the method: For real-time qPCR, 15,000 RDEB keratinocytes or normal human epidermal keratinocytes were plated in a 96-well cell culture plate in 80 µL of supplemented KGM medium without GA-1000 and containing 20 ng/mL of TGFβ2 for RDEB keratinocytes, and cells were incubated overnight at 37 °C and 5%CO2. The day after, cells were treated with 20 µL of test compounds prepared 5 × in supplemented KGM without GA-100, for 24 h at 37 °C and 5% CO2. For the mRNA extraction, the medium was removed, cells were washed with PBS, and conserved at -80 °C until the total RNA extraction.
RNA extraction was conducted using the RNeasy 96 Kit (4) (Qiagen 74181) following the manufacturer’s instructions. Total RNA was recovered in 50 µL of RNase-free water and the yield of extracted RNA was quantified using a NanoDrop 2000 Spectrophotometer (ThermoFisher). Purified RNA was stored at -80 °C until RT-qPCR.
Real time-qPCR was performed by using the iTaq Universal Probes One-Step Kit, (cat. 1725140, Bio-Rad) and according to the manufacturer’s instructions. […] RT-qPCR was performed to quantify the COL7A1 mRNA (exon 64) expression.
For COL7A1 quantitative gene expression, human GAPDH was used as the endogenous control. Results were analyzed with the QuantStudio Real-Time PCR Software.
A general note: In qPCR the cycle at which signal appears reflects the starting amount.

For another assay, the target named is T1, JAK3 (Homo sapiens, UniProt P52333).
T1 sequence (P52333 1-1124): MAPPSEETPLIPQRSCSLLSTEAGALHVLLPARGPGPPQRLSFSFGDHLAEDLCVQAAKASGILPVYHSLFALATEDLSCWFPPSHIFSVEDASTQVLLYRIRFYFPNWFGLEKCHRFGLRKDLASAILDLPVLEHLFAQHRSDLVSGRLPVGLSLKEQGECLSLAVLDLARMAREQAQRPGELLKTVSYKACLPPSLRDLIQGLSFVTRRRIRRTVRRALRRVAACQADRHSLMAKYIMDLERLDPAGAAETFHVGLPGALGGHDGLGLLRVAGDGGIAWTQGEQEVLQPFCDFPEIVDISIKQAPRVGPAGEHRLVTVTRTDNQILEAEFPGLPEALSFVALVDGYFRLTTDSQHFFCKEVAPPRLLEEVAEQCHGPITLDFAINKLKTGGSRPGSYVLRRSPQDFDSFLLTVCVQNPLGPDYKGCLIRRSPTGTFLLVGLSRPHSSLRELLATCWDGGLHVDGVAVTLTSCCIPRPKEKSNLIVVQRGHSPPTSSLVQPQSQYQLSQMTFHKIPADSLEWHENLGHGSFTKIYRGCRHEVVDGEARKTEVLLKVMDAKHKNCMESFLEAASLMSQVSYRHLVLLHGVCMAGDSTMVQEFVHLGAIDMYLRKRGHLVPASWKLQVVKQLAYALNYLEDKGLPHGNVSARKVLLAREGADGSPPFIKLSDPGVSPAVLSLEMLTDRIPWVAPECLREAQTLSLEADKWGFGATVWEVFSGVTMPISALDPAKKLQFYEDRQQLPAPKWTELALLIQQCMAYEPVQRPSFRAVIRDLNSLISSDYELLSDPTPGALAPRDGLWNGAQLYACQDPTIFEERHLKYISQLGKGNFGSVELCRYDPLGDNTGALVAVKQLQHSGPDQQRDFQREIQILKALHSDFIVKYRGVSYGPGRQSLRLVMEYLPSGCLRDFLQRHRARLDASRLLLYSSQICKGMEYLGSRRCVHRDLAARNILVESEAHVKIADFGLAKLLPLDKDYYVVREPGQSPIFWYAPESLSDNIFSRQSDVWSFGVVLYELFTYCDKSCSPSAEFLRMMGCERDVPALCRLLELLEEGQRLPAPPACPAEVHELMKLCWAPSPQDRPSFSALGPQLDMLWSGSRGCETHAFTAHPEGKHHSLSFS
As to the kind of experiment: Enzymatic JAK3 kinase activity. The assay is classed as biochemical. To be noted: dose-response curves; read-out: IC50 ± SD, JAK3. As to the method: as §1

The next assay deals with Syk (Homo sapiens, UniProt P43405). As to the kind of experiment: Enzymatic Syk kinase activity. The assay is classed as biochemical. To be noted: dose-response curves; read-out: IC50 ± SD, Syk. As to the method:
as §1

In a further assay the target is Tyk2 (Homo sapiens, UniProt P29597). As to the kind of experiment: Enzymatic Tyk2 kinase activity. The assay is classed as biochemical. To be noted: dose-response curves; read-out: IC50 ± SD, Tyk2. On the procedure:
as §1

Another assay concerns the target T2, PDE4D2 (Homo sapiens, UniProt Q08499).
T2 construct: Eurofins Pharma Discovery Services
Put plainly: Selectivity panel (Eurofins): PDE4D2. The class given is biochemical. To be noted: n = 1, duplicate. As to the method: (§2) Selectivity was evaluated at Eurofins Pharma Discovery Services at 3 µM, 10 µM, and 30 µM in duplicate using a selection of 84 representative kinases and 44 GPCRs, transporters, nuclear receptors (NR), enzymes, and ion channels.

For a further assay, the system named is Kappa (KOP). As to the kind of experiment: Selectivity panel (Eurofins): Kappa (KOP). The assay is classed as binding. To be noted: n = 1, duplicate. As to the method:
as §2

A further assay has as its system BZD. Put plainly: Selectivity panel (Eurofins): benzodiazepine receptor BZD. The assay is classed as binding. To be noted: for % inhibition, BZD: n = 1, duplicate.
For another assay, the target named is T3, Dopamine transporter (Homo sapiens, UniProt Q01959).
T3 construct: Eurofins Pharma Discovery Services
T3 sequence (Q01959 whole entry): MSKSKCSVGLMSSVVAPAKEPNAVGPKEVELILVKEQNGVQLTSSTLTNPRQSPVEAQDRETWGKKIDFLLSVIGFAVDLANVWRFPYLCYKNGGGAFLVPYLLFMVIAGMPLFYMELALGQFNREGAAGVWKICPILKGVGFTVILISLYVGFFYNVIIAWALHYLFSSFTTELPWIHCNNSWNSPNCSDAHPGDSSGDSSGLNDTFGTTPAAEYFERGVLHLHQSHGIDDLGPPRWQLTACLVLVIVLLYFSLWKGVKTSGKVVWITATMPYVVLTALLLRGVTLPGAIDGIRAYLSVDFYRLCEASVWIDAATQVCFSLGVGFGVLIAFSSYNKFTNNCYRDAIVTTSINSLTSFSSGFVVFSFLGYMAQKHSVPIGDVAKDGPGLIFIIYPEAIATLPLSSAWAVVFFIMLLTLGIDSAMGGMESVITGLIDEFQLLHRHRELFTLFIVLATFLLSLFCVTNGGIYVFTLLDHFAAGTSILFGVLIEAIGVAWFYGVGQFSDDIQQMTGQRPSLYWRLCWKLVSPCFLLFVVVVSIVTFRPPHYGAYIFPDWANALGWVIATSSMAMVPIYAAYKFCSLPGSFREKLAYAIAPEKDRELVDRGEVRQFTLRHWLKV
Put plainly: Selectivity panel (Eurofins): dopamine transporter. The class given is binding. To be noted: n = 1, duplicate. On the procedure:
as §2

A further assay deals with T4, A2A (Homo sapiens, UniProt P29274).
T4 construct: Eurofins Pharma Discovery Services
T4 sequence (P29274 whole entry): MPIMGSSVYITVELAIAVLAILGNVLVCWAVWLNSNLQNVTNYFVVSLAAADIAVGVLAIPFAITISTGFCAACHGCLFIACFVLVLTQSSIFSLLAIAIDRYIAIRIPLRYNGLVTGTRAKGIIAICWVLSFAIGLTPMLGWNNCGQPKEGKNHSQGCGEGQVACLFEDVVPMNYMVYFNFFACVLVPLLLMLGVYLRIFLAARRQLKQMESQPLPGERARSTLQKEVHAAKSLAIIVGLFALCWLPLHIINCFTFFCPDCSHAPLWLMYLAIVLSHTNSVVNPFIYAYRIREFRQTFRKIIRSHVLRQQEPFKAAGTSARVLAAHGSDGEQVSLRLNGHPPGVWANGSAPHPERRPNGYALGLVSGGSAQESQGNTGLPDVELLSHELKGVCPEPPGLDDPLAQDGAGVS
As to the kind of experiment: Selectivity panel (Eurofins): A2A adenosine receptor. The assay is classed as binding.

[2] abbreviates: at concentrations of 3 and 10 µM.

Like-named read-outs stand apart in the source and are kept apart here. Bounds are passed on as bounds.

T2 sequence (Q08499 303-809 limits assumed): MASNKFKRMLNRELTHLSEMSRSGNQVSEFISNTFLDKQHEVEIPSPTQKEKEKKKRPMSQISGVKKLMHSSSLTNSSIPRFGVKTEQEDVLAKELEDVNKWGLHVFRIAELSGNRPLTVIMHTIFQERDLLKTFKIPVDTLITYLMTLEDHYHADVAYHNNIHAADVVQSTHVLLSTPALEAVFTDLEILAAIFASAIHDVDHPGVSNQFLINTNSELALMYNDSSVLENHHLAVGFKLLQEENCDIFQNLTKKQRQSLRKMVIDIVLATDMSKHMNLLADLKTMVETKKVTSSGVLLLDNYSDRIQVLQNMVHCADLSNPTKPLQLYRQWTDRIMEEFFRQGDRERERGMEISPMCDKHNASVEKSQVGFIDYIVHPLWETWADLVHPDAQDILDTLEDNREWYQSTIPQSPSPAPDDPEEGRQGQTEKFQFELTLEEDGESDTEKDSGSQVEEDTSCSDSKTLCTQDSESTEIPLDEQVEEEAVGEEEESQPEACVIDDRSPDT
Sequence of JAK1 (P23458 whole entry, species assumed): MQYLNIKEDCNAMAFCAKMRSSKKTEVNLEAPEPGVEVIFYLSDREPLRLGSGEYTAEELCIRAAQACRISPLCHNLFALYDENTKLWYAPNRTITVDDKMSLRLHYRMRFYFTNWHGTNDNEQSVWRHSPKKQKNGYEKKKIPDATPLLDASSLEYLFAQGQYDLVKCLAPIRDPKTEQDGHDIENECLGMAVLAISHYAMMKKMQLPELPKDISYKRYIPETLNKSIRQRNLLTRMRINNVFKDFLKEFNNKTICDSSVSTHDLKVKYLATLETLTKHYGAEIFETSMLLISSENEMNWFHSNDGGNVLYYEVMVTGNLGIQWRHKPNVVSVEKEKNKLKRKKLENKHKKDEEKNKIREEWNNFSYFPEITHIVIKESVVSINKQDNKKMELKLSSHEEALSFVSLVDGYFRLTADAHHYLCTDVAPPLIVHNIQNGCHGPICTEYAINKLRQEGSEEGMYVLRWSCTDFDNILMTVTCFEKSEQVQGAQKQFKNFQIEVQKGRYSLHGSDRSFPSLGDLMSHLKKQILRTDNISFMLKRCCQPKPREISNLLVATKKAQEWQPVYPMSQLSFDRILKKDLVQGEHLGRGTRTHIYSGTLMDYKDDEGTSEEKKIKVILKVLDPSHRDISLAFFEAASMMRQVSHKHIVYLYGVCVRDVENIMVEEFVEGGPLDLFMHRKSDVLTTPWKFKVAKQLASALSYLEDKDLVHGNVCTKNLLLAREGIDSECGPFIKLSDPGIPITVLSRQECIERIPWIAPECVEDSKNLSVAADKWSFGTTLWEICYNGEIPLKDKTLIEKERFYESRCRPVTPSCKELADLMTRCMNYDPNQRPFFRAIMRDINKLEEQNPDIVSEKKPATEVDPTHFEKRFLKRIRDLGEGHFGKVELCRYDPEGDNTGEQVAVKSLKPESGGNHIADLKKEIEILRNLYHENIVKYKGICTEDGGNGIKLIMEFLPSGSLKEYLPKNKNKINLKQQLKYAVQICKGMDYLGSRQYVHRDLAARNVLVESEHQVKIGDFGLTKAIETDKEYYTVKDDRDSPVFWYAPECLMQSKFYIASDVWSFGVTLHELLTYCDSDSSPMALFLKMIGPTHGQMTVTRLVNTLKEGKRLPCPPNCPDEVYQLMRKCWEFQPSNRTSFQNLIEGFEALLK
Sequence of Tyk2 (P29597 whole entry, species assumed): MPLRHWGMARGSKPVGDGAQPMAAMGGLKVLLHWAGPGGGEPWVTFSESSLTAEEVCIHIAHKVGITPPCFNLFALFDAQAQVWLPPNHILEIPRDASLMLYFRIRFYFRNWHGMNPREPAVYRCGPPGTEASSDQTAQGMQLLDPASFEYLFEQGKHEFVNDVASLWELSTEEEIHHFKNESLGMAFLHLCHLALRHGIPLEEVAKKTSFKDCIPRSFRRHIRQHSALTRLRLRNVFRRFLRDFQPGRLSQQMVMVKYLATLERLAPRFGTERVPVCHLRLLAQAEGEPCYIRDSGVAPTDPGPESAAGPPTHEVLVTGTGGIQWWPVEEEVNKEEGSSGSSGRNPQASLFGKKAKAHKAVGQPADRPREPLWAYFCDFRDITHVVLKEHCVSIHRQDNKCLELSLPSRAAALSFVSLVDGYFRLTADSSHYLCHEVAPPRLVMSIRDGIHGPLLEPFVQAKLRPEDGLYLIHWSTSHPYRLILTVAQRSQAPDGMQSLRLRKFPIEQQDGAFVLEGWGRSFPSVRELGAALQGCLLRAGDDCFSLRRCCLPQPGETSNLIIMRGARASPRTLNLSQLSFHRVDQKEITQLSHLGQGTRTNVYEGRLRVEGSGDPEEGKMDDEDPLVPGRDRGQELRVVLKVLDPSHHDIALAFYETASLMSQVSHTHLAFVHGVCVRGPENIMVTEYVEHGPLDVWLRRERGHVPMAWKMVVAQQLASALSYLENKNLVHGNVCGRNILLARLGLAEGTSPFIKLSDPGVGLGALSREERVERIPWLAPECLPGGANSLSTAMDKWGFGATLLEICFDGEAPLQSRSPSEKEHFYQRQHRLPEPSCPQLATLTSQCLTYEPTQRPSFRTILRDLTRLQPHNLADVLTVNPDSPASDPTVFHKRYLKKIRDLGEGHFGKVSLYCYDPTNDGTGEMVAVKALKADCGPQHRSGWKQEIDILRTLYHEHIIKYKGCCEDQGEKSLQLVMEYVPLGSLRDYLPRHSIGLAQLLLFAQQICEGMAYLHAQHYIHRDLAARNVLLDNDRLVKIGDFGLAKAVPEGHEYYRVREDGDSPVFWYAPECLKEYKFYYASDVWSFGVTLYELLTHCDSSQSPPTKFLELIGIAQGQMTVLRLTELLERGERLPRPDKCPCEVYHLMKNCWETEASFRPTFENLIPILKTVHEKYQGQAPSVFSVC

Consider `NC(=O)Cn1ccc2ccc(-c3cnc(N)c(C(=O)NC4C5CC6CC4CC(O)(C6)C5)n3)cc21` (stereo not drawn) [Compound 1], for which the IC50 on JAK1 came to 440 ± 160 nM; at JAK3 it was 60 ± 6 nM; on Syk, 1720 ± 440 nM; at Tyk2 it was 30 ± 0.6 nM. In [1], the “levels of COL7A1 mRNA (qPCR)” value is “TGFβ2 was required for full upregulation”.

As to `C#Cc1cc(-c2ccncc2)c(-c2cccc(F)c2)nc1N` [Compound 7], the inhibition at 3 µM against PDE4D2 (at 3 μM) came out at 16%; on Dopamine transporter (at 3 μM), 17%; at A2A (at 3 μM, n = 1, duplicate, read-out: % inhibition, A2A) it was 101%. Further, the inhibition at 10 µM at PDE4D2 (at 10 μM) was determined as 34%; at Dopamine transporter (at 10 μM), 40%; at A2A (Table 5, read-out: Selectivity % inhibition, A2A), 96%; at A2A (n = 1, duplicate, read-out: % inhibition, A2A), 100%. In addition, the inhibition at 30 µM was determined as 61% at PDE4D2 (at 30 μM); 64% on Dopamine transporter (at 30 μM); 101% on A2A (at 30 μM, n = 1, duplicate, read-out: % inhibition, A2A). Besides, the “% inhibition, Kappa (KOP)” value amounted to 12% in the assay on Kappa (KOP) (at 3 μM), 32% in the assay on Kappa (KOP) (at 10 μM) and 54% in the assay on Kappa (KOP) (at 30 μM). For the same compound, in [1], the “levels of COL7A1 mRNA (qPCR)” value was “did not result in an increase in C7 mRNA levels”. Further, the “% inhibition, BZD” value in the assay on BZD (at 3 μM) turned out to be 48%; in the assay with BZD (at 10 μM), 73%; with BZD (at 30 μM), 88%. The “antagonism/inhibition of benzodiazepine receptor BZD” value in the assay on BZD (setting [2]) is not below 50%. Further, the “antagonism/inhibition of A2A adenosine receptor” value at A2A (setting [2]) is not below 50%.

What is called IC50 is the point on the concentration scale where inhibition reaches its midpoint. A word on the inhibition: it is the relative decrease from the control value, in per cent.

The values above are taken from article PMC11329504, “Identification of novel small molecule-based strategies of COL7A1 upregulation and readthrough activity for the treatment of recessive dystrophic epidermolysis bullosa” (Scientific Reports, 2024).
